Source: patent US7153852B2, “Indole compounds, process for producing the same and drugs containing the same as the active ingredient” (Ono Pharmaceutical Co., Ltd., priority 2001, dated 2006)

Molecular target: T1, mouse DP receptors (Mus musculus, UniProt P70263)
T1 construct: expressed in transfected cells; host or cells: CHO cells (membrane preparation)
T1 sequence (P70263 1-357): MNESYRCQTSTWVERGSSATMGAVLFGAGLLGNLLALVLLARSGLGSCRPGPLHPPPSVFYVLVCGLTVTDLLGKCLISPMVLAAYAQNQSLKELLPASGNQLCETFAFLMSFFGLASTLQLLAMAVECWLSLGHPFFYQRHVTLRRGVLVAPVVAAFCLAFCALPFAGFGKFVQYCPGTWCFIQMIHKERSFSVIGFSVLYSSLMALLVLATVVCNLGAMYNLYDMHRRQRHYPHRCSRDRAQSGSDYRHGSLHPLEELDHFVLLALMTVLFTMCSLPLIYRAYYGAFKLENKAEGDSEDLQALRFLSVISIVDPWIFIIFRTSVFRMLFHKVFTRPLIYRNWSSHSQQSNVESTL
Test: Receptor binding test using prostanoid DP receptor-expressing cells (3H-PGD2 binding inhibition)
Conditions: membrane of CHO cells expressing mouse DP receptors; 3H-PGD2 2.5 nmol/L; Ki=IC50/(1+([L]*/Kd))
Protocol: (i) Receptor Binding Test Using Prostanoid DP Receptor-Expressing Cells
CHO cells expressing mouse DP receptors were prepared according to the method of Hirata et al. (Proc. Natl. Acad. Sci., 91, 11192–11196 (1994)) and used as a membrane standard.
A reaction solution (200 μL) containing the prepared membrane standard (30–166 μg) and ^3H-PGD2 was incubated at room temperature for 20 minutes. The reaction was stopped with an ice-cold buffer (1 mL) and the binding ^3H-PGD2 was trapped in on a glass filter by immediate aspiration-filtration under a reduced pressure, and its binding radioactivity was measured using a liquid scintillation counter.
Kd value and Bmax value were obtained from Scatchard plots (Ann. N. Y. Acad. Sci., 51, 660 (1949)]. Non-specific binding was obtained as the binding radioactivity in the presence of unlabeled PGD2 at an excess amount (10 μmol/L). 3H-PGD2 binding inhibition by the compound of the present invention was measured by adding ^3H-PGD2 (2.5 nmol/L) and the compound of the present invention as various concentrations. Also, the following buffers were used for the reactions.
The dissociation constant (Ki) (μmol/L) of each compound was obtained by the following equation. Ki=IC50/(1+([L]*/Kd)) • [L*]: Concentration of radioligand

Cc1cc2c(CC(=O)O)cccc2n1C(=O)c1ccc(OC[C@H]2Cc3ccccc3O2)cc1 [2(16), 1-(4-((2R)-2,3-dihydrobenzofuran-2-ylmethoxy)benzoyl)-2-methyl-1H-indol-4-ylacetic acid]
Ki: 31 nM
